Measurements: US20260152487A1 (Sitryx Therapeutics Limited, priority 2021, published 2026)
Read-outs that look alike come from different tables or passages of the source.

What was measured:
recombinant human PKM2 = molecular target: T1, recombinant human PKM2 (Homo sapiens, UniProt P14618); test: Human PKM2 activation assay (Kinase-Glo Plus luminescent detection of generated ATP); type: biochemical; conditions: for Emax: read-out: hPKM2 Emax; for EC50: read-out: hPKM2 EC50
T1 construct: His (N); purchased R&D Systems
Outline: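 N-His-tagged recombinant hPKM2 ([…]) with PEP and ADP was incubated with compound for 60 min at 26 °C, shaking, in 50 mM imidazole, 50 mM KCl, 7 mM MgCl2, 0.01% Tween20, 0.05% BSA, pH 7.2. ATP produced was read by Kinase-Glo Plus luminescence after 15 min.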

recombinant human PKLR = molecular target: T2, recombinant human PKLR (Homo sapiens, UniProt P30613); test: Human PKLR activation assay (Kinase-Glo Plus luminescent detection of generated ATP); type: biochemical; conditions: for EC50: read-out: hPKLR EC50; for Emax: read-out: hPKLR Emax (%)
T2 construct: His (N); purchased R&D Systems
Procedure: Compound activation of recombinant human PKLR pyruvate kinase activity was determined by biochemical assay. N-terminal His-tagged enzyme was sourced from R&D Systems and its substrates phosphoenolpyruvate (PEP) and ADP from Sigma-Aldrich and 2Bscientific Ltd, respectively. The Kinase-Glo® Plus luminescence assay was from Promega. All other reagents were from Sigma-Aldrich. Test Compounds were prepared as 10 mM DMSO stocks and dilution series prepared in DMSO for direct dilution into Assay Buffer comprising 50 mM imidazole, 50 mM KCl, 7 mM MgCl2, 0.01% Tween20, 0.05% BSA (pH 7.2).
Human PKLR was diluted into Assay Buffer to a final concentration of 5 pM. Enzyme-Assay Buffer mix was dispensed into 384-well shallow-well white-walled plates and Test Compounds added by acoustic dispense (Echo®, Labcyte Inc).
After 60 minutes' incubation on an orbital shaker (300 rpm, 26° C.), enzyme activity was quantified by the luminescent detection of generated ATP. Kinase-Glo® Plus reagent was added to each well and the plates incubated for a further 15 minutes on an orbital shaker in the dark (300 rpm, 26° C.) before luminescence measurement on a plate reader (PHERAstar® FSX, BMG Labtech).
Percentage activation was calculated by normalising […] signals to plate LOW (DMSO vehicle) and HIGH (5 μM TEPP-46) controls. EC50 and Emax values were determined from 4-parameter logistic fits of compound concentration-response curves.

[1] = percentage activation normalised to DMSO vehicle (LOW) and 5 μM TEPP-46 (HIGH)
[2] = recombinant human PKM2 activation, 4-parameter logistic fit
[3] = activation of recombinant human PKLR, 4-parameter logistic fit
[4] = percentage activation normalised to DMSO vehicle (LOW) and 5 μM TEPP-46 (HIGH) controls
[5] = data from repeat experiments (*)
[6] = line of the repeat experiment (EC50 marked *)

T2 sequence (P30613 whole entry): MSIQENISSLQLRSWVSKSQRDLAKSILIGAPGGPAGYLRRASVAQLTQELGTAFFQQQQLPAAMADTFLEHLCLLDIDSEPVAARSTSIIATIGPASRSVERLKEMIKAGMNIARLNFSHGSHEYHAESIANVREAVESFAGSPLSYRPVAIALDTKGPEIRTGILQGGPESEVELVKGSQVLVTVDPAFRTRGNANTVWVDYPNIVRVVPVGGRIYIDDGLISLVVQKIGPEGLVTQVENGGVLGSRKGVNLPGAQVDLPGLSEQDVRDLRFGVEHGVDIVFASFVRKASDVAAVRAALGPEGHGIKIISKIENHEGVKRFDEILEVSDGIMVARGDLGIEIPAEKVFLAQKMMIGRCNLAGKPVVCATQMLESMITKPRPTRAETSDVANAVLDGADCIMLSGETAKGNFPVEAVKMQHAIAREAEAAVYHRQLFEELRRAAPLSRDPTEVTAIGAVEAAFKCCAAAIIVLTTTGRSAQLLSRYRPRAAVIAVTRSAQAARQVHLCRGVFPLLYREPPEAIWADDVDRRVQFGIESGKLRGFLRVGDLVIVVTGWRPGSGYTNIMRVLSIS
T1 sequence (P14618 2-531 limits assumed): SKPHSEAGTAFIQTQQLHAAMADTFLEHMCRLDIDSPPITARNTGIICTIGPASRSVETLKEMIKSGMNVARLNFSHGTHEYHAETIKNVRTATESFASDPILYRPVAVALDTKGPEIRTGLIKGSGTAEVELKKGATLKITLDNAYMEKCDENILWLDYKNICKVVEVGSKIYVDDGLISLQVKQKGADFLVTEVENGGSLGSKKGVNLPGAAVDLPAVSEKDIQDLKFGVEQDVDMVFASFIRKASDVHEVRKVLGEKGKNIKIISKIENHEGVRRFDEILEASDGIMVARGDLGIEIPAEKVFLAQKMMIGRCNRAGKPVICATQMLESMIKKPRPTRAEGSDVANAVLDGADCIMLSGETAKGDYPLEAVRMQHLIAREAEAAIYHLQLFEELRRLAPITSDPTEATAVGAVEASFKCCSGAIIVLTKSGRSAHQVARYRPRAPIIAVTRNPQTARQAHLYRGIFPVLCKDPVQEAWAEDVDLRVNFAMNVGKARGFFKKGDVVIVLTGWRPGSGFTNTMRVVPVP

SMILES | Emax (recombinant human PKM2; [1]) [%] | EC50 (recombinant human PKM2; [2]) [nM] | EC50 (recombinant human PKLR; [3]) [nM] | Emax (recombinant human PKLR; [4]) [%] | EC50 (recombinant human PKM2; [5]) [nM] | Emax (recombinant human PKM2; [6]) [%] | EC50 (recombinant human PKLR; * data from repeat experiments) [nM] | Emax (recombinant human PKLR; line of the repeat experiments (EC50 marked *)) [%]
O=c1c2ccc(S(=O)(=O)c3ccc4c(c3)NCCO4)cc2cnn1Cc1ccn(CCO)n1 [Example 202, 6-((3,4-dihydro-2H-benzo[b][1,4]oxazin-6-yl)sulfonyl)-2-((1-(2-hydroxyethyl)-1H-pyrazol-3-yl)methyl)phthalazin-1(2H)-one] | 109 | 91.7 | 7.9 | 125 | – | – | – | –
COc1ccc(S(=O)(=O)c2ccc3c(=O)n(Cc4ccn(C5CC5)n4)ncc3c2)cn1 [Example 205, 2-((1-cyclopropyl-1H-pyrazol-3-yl)methyl)-6-((6-methoxypyridin-3-yl)sulfonyl)phthalazin-1(2H)-one] | 120 | 59.2 | 8 | 115 | – | – | – | –
Cc1cccc(Cn2ncc3cc(S(=O)(=O)c4cn[nH]c4)ccc3c2=O)n1 [Example 238, 6-((1H-pyrazol-4-yl)sulfonyl)-2-((6-methylpyridin-2-yl)methyl)phthalazin-1(2H)-one] | 108 | 125 | 14.4 | 127 | – | – | – | –
Cc1cccc(Cn2ncc3cc(S(=O)(=O)c4cc[nH]n4)ccc3c2=O)n1 [Example 239, 6-((1H-pyrazol-3-yl)sulfonyl)-2-((6-methylpyridin-2-yl)methyl)phthalazin-1(2H)-one] | 106 | 109 | 24.8 | 135 | – | – | – | –
O=c1c2ccc(S(=O)(=O)c3cnn(CCO)c3)cc2cnn1Cc1cc[nH]n1 [Example 241, 2-((1H-pyrazol-3-yl)methyl)-6-((1-(2-hydroxyethyl)-1H-pyrazol-4-yl)sulfonyl)phthalazin-1(2H)-one] | 106 | 118 | 27.5 | 129 | – | – | – | –
Cn1ccc(Cn2ncc3cc(S(=O)(=O)c4ccccc4)c(F)cc3c2=O)n1 [Example 242, 7-fluoro-2-((1-methyl-1H-pyrazol-3-yl)methyl)-6-(phenylsulfonyl)phthalazin-1(2H)-one] | 107 | 102 | 22.2 | 134 | – | – | – | –
Cn1ccc(Cn2ncc3cc(S(=O)(=O)c4ccccc4)c(NCCO)cc3c2=O)n1 [Example 244, 7-((2-hydroxyethyl)amino)-2-((1-methyl-1H-pyrazol-3-yl)methyl)-6-(phenylsulfonyl)phthalazin-1(2H)-one] | 105 | 206 | 27.4 | 123 | – | – | – | –
Cc1nc(Cn2ncc3cc(S(=O)(=O)c4cn[nH]c4)ccc3c2=O)ccc1F [Example 251, 6-((1H-pyrazol-4-yl)sulfonyl)-2-((5-fluoro-6-methylpyridin-2-yl)methyl)phthalazin-1(2H)-one] | 116 | 111 | 11.3 | 111 | – | – | – | –
Cc1ccc(F)c(Cn2ncc3cc(S(=O)(=O)c4cn[nH]c4)ccc3c2=O)n1 [Example 252, 6-((1H-pyrazol-4-yl)sulfonyl)-2-((3-fluoro-6-methylpyridin-2-yl)methyl)phthalazin-1(2H)-one] | 105 | 107 | 18 | 120 | – | – | – | –
O=c1c2ccc(S(=O)(=O)c3ccc4occc4n3)cc2cnn1Cc1ccn(C2CC2)n1 [Example 256, 2-((1-cyclopropyl-1H-pyrazol-3-yl)methyl)-6-(furo[3,2-b]pyridin-5-ylsulfonyl)phthalazin-1(2H)-one] | 95.5 | 31.7 | 3.33 | 136 | – | – | – | –

Other lines, results leading:

Emax (recombinant human PKM2; [1]) [%] | EC50 (recombinant human PKM2; [2]) [nM] | EC50 (recombinant human PKLR; [3]) [nM] | Emax (recombinant human PKLR; [4]) [%] | EC50 (recombinant human PKM2; [5]) [nM] | Emax (recombinant human PKM2; [6]) [%] | EC50 (recombinant human PKLR; * data from repeat experiments) [nM] | Emax (recombinant human PKLR; line of the repeat experiments (EC50 marked *)) [%] | SMILES
103 | 27.9 | 2.9 | 140 | – | – | – | – | Cn1ccc(Cn2ncc3cc(S(=O)(=O)c4ccc5c(c4)NCCO5)ccc3c2=O)n1 [Example 201, 6-((3,4-dihydro-2H-benzo[b][1,4]oxazin-6-yl)sulfonyl)-2-((1-methyl-1H-pyrazol-3-yl)methyl)phthalazin-1(2H)-one]
114 | 35.3 | 2.4 | 123 | – | – | – | – | O=c1c2ccc(S(=O)(=O)c3ccc4c(c3)CCO4)cc2cnn1Cc1cc[nH]n1 [Example 203, 2-((1H-pyrazol-3-yl)methyl)-6-((2,3-dihydrobenzofuran-5-yl)sulfonyl)phthalazin-1(2H)-one]
98.7 | 50 | 10.3 | 128 | – | – | – | – | O=c1c2ccc(S(=O)(=O)c3ccc4c(c3)OCCO4)cc2cnn1Cc1ccn(CCO)n1 [Example 206, 6-((2,3-dihydrobenzo[b][1,4]dioxin-6-yl)sulfonyl)-2-((1-(2-hydroxyethyl)-1H-pyrazol-3-yl)methyl)phthalazin-1(2H)-one]
99.9 | 33.3 | 4.2 | 123 | – | – | – | – | O=c1c2ccc(S(=O)(=O)c3ccc4c(c3)OCCO4)cc2cnn1Cc1cc[nH]n1 [Example 207, 2-((1H-pyrazol-3-yl)methyl)-6-((2,3-dihydrobenzo[b][1,4]dioxin-6-yl)sulfonyl)phthalazine-1(2H)-one]
106 | 44.2 | 10.2 | 124 | – | – | – | – | C[C@H]1Cc2cc(S(=O)(=O)c3ccc4c(=O)n(Cc5ccn(C)n5)ncc4c3)ccc2O1 [Example 219, (S)-2-((1-methyl-1H-pyrazol-3-yl)methyl)-6-((2-methyl-2,3-dihydrobenzofuran-5-yl)sulfonyl)phthalazin-1(2H)-one]
105 | 42.8 | 3.4 | 134 | – | – | – | – | O=c1c2ccc(S(=O)(=O)c3ccc4c(c3)NCCO4)cc2cnn1Cc1cc[nH]n1 [Example 221, 2-((1H-pyrazol-3-yl)methyl)-6-((3,4-dihydro-2H-benzo[b][1,4]oxazin-6-yl)sulfonyl)phthalazin-1(2H)-one]
107 | 45 | 4.9 | 132 | – | – | – | – | O=c1c2ccc(S(=O)(=O)c3ccc4occc4n3)cc2cnn1Cc1cc[nH]n1 [Example 223, 2-((1H-pyrazol-3-yl)methyl)-6-(furo[3,2-b]pyridin-5-ylsulfonyl)phthalazin-1(2H)-one]
114 | 50.3 | 8.6 | 117 | – | – | – | – | O=c1c2ccc(S(=O)(=O)c3cnc4occc4c3)cc2cnn1Cc1cc[nH]n1 [Example 225, 2-((1H-pyrazol-3-yl)methyl)-6-(furo[2,3-b]pyridin-5-ylsulfonyl)phthalazin-1(2H)-one]
116 | 40.4 | 21.2 | 119 | 41.5 | 112 | – | – | O=c1c2ccc(S(=O)(=O)c3cnn(C4CC4)c3)cc2cnn1Cc1cc[nH]n1 [Example 228, 2-((1H-pyrazol-3-yl)methyl)-6-((1-cyclopropyl-1H-pyrazol-4-yl)sulfonyl)phthalazin-1(2H)-one]
107 | 159 | 30.3 | 125 | – | – | – | – | Cn1cc(S(=O)(=O)c2ccc3c(=O)n(Cc4cc[nH]n4)ncc3c2)cn1 [Example 240, 2-((1H-pyrazol-3-yl)methyl)-6-((1-methyl-1H-pyrazol-4-yl)sulfonyl)phthalazin-1(2H)-one]
104 | 20.1 | 5.59 | 107 | 21.6 | 105 | 4.32 | 118 | O=c1c2ccc(S(=O)(=O)c3cn[nH]c3)cc2cnn1Cc1ccc2c(n1)CCO2 [Example 253, 6-(1H-pyrazol-4-ylsulfonyl)-2-((2,3-dihydrofuro[3,2-b]pyridin-5-yl)methyl)phthalazin-1(2H)-one]
